Test results as given in patent US7964613B2 (Asahi Kasei Pharma Corporation, priority 2007, dated 2011).

Experiments:
[1] = molecular target: T1, human ROCK1 (Homo sapiens, UniProt Q13464); test: Measurement of Rho kinase inhibitory activity (ELISA of MBS phosphorylation); type: biochemical; details: human ROCK1, MBS substrate, 100 μM ATP, 30° C. for 10 minutes
T1 construct: His tag (N); host or cells: insect cells (Sf9)
How it was run: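 N-terminal His-tagged human ROCK1 (1-727, Sf9-expressed) phosphorylated plate-immobilized MBS in 20 mM HEPES pH 7.5, 100 μM ATP, 30° C for 10 minutes. Phospho-MBS detected by antibody ELISA (A490); IC50 is concentration giving 50% inhibition.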

[2] = test system: TNF-α production; test: Inhibitory effect on TNF-α production in mice (LPS); type: in vivo, BALB/c mice; details: Mus musculus, 1.5 h; oral administration of 30 mg/kg, LPS 5 μg i.p. 60 minutes later, plasma after 90 minutes; read-out: TNF-α production suppressing action
Experimental: BALB/c mice (Japan CRJ, famale) were used as experimental animals. Each test compound was dissolved in distilled water at a concentration suitable for the examination. The weight of each mouse was measured, a test compound solution was orally administered in a volume corresponding to 10 ml/kg, and only distilled water was administered to the control group. Each group consisted of five to seven animals. LPS was dissolved in physiological saline, and intraperitoneally administered to each mouse in an amount of 5 μg. The test compound was administered first, and LPS (lipopolysaccharide, Sigma) was administered 60 minutes later. After 90 minutes, blood was collected from the abdominal large vein in the presence of heparin, and plasma was obtained by centrifugation. TNF-α content in the plasma was measured by using the ELISA method.

[3] = test system: rat spinal canal stenosis (cauda equina compression-induced walking dysfunction) model; test: Rat spinal canal stenosis model, walking ability test; type: in vivo; details: treadmill; for walk distance compared with the solvent repetitive administration group: 14th day of repetitive administration; for Inventive compound repetitive administration group (average distance (m)): 14th day of repetitive administration started 4th day after operation, 7 or 8 animals
Description: A rat spinal canal stenosis (cauda equina compression-induced walking dysfunction) model can be prepared according to the method of Nakai, K et al. (Anesth. Analg., 94, pp. 1537-1541 (2002)) or the like. Namely, a rat is anesthetized with pentobarbital sodium, shaved on the back, and fixed in the abdominal position. After disinfection on the back with Isodine Surgical Scrub (Meiji Seika), a lumbar part is cut open along the median to expose the spine. Then, a silicone rubber of 1×4×1.5 mm (height×length×width) is inserted into the fifth lumbar vertebral canal from a small hole on the vertebral arch. Benzylpenicillin potassium (Crystalline Penicillin G Potassium Meiji, Meiji Seika) is dropped on the opened lesion and intramuscularly injected in the femoral region for the purpose of evasion of infectious diseases. The muscles and skin of the opened lesion are sutured with a ligature, and Isodine Surgical Scrub is applied to the sutured portion. Animals of sham group are also prepared according to the aforementioned method, provided that silicone rubber is not inserted.
In walking ability test, evaluation is performed by using a treadmill (Muromachi Kikai). A rat is placed on a traveling belt, adapted to the environment more than 3 minutes under a grid-electrified condition (0.04 to 4 mA), and then made to start walking from a velocity of 10 m/min, and then the velocity is increased by 5 m/min every 3 minutes. The walk is stopped, and electrical stimulation (0.04 to 4 mA) is applied to the rat which has moved to the grid for electrical stimulation provided before the traveling belt. Distance which the animal walked after the animal started the walk until the animal became unable to walk, i.e., the animal came not to walk even if a stimulation (sound, contact, electricity) was added to the animal to urge it to walk, was calculated from the walking time. Before the operation, the walking function test is carried out 3 times to perform training of walk. From the 4th day after the operation, repetitive administration of each compound of the present invention as a test compound was started, and the walking ability test was performed on the 14th day of the administration for the measurement.
Each group consisted of 7 or 8 animals, and the average distance before the administration was the average for the animals of both groups. […] It was confirmed that the compounds of the present invention were useful as medicaments for therapeutic treatment of a disease accompanied by walking dysfunction such as spinal canal stenosis.

T1 sequence (Q13464 1-727): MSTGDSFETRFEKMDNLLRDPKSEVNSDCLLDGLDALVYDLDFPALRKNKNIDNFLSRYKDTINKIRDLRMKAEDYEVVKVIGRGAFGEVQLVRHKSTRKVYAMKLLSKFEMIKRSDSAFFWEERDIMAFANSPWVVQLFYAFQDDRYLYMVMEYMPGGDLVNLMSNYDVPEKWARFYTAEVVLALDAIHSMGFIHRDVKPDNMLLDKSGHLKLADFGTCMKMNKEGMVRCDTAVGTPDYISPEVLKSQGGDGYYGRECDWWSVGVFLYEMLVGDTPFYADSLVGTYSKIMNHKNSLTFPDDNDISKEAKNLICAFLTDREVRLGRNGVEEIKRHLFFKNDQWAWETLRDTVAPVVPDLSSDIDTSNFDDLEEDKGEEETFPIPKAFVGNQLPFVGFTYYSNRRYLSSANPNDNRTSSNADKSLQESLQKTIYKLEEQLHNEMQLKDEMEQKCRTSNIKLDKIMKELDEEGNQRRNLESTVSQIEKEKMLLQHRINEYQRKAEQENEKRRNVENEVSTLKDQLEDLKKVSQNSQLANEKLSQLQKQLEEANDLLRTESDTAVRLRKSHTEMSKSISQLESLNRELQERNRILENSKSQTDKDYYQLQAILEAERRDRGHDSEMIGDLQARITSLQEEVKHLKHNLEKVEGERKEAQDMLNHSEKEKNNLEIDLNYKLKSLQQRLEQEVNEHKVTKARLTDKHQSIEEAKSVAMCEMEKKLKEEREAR

CN[C@H]1CCN(S(=O)(=O)c2cccc3c(O)ncc(Cl)c23)C1 [Example 36-1, (S)-1-(1-Hydroxy-4-chloro-5-isoquinolinesulfonyl)-3-(methylamino)pyrrolidine]
IC50 [1]: < 1000 nM
inhibition in vivo at 30 mg/kg [2]: ≥ 50%
walk distance compared with the solvent repetitive administration group [3]: extended the walk distance
Inventive compound repetitive administration group (average distance (m)) [3]: 298 m

CN[C@H]1CCN(S(=O)(=O)c2cccc3cncc(Cl)c23)C1 [Example 19-3, (S)-1-(4-Chloro-5-isoquinolinesulfonyl)-3-(methylamino)pyrrolidine]
IC50 [1]: < 1000 nM
inhibition in vivo at 30 mg/kg [2]: ≥ 50%
walk distance compared with the solvent repetitive administration group [3]: extended the walk distance
Inventive compound repetitive administration group (average distance (m)) [3]: 285 m

N[C@H]1CCN(S(=O)(=O)c2cccc3cncc(Cl)c23)C1 [Example 19-1, (S)-3-Amino-1-(4-chloro-5-isoquinolinesulfonyl)pyrrolidine]
IC50 [1]: < 1000 nM
inhibition in vivo at 30 mg/kg [2]: ≥ 50%

CN[C@H]1CCN(S(=O)(=O)c2cccc3cncc(C)c23)C1 [Example 8-3]
IC50 [1]: < 1000 nM
inhibition in vivo at 30 mg/kg [2]: ≥ 50%
walk distance compared with the solvent repetitive administration group [3]: extended the walk distance
Inventive compound repetitive administration group (average distance (m)) [3]: 224 m
